Results: US7517996B2, “Azole compound” (Ajinomoto Co., Inc., priority 2003, dated 2009)

Assay: Inhibition of LPA-induced intracellular Ca2+ concentration increase (FLIPR)
Assay type: cell-based
Conditions: LPA final concentration 5 μM; rat hepatic stellate cell derived myofibroblast like clone; Fluo-3, FLIPR
From the text: (1) Establishment of Myofibroblast Like Cell Strain Derived from Rat Hepatic Stellate Cell Fraction A stellate cell fraction was obtained from the liver of male Wistar rat according to a conventional method (European J. Biochem., 1993, vol. 213, p. 815). After subculture for several generations, the cell was cloned by limiting dilution. Well grown 24 clones that formed colonies were isolated. These clones were stained with αSMA antibody and confirmed to be all positive and to have Myofibroblast like properties. […] (2) Measurement of Cell Activation (Intracellular Ca^2+ Concentration Increasing Action)-Inhibitory Activity The above-mentioned cells were cultured overnight in a 384 well plate at 24,000 cells/well and the medium was removed. An assay buffer (0.1% BSA, 20 mM HEPES, 1×HBSS, 2.5 mM Probenecid) containing 4 μM of Fluo-3, AM (Biotium) was added, and the cells were stained at 37° C. for 1 hour. Following the buffer containing the dye reagent was removed, and an assay buffer was added, intracellular Ca^2+ concentration was measured with FLIPR (Molecular Devices). Adding a test substance and LPA at the final concentration of 5 μM, the inhibitory action of the test substance on the increase in the intracellular Ca^2+ concentration by LPA was examined. The increase in the intracellular Ca^2+ concentration by LPA addition without test substance was taken as 100%, that without the addition of LPA was taken as 0%, and the substrate's concentration (IC50) at inhibiting increase in the intracellular Ca^2+ concentration by 50% was determined.

SMILES | IC50
CC(OC(=O)Nc1conc1-c1ccc(CSCCC(=O)O)cc1)c1ccccc1Cl (stereo not drawn) [Compound 2, 3-(4-{4-[1-(2-chlorophenyl)ethoxycarbonylamino]-3-isoxazolyl}benzylsulfanyl)propionic acid] | 51 nM
C[C@@H](OC(=O)Nc1conc1-c1ccc(CSCCC(=O)O)cc1)c1ccccc1Cl [Compound 3, 3-(4-{4-[(1R)-1-(2-chlorophenyl)ethoxycarbonylamino]-3-isoxazolyl}benzylsulfanyl)propionic acid] | 22 nM
CC(=O)N[C@@H](CSCc1ccc(-c2nocc2NC(=O)OC(C)c2ccccc2Cl)cc1)C(=O)O (stereo partly drawn) [Compound 4, N-acetyl-S-(4-{4-[1-(2-chlorophenyl)ethoxycarbonylamino]-3-isoxazolyl}benzyl)-L-cysteine] | 65 nM
CC(OC(=O)Nc1conc1-c1ccc(CSCCS(=O)(=O)O)cc1)c1ccccc1Cl (stereo not drawn) [Compound 5, 2-(4-{4-[1-(2-chlorophenyl)ethoxycarbonylamino]-3-isoxazolyl}benzylsulfanyl)ethanesulfonic acid] | 74 nM
C[C@@H](OC(=O)Nc1conc1-c1ccc(CSCCC(=O)O)cc1)c1ccccc1Br [Compound 6, 3-(4-{4-[(1R)-1-(2-bromophenyl)ethoxycarbonylamino]-3-isoxazolyl}benzylsulfanyl)propionic acid] | 22 nM
CC(=O)N[C@@H](CSCc1ccc(-c2nocc2NC(=O)O[C@H](C)c2ccccc2Br)cc1)C(=O)O [Compound 7, N-acetyl-S-(4-{4-[(1R)-1-(2-bromophenyl)-ethoxycarbonylamino]-3-isoxazolyl}benzyl)-L-cysteine] | 59 nM
CC(OC(=O)Nc1conc1-c1ccc(CSCCC(=O)O)cc1)C1=C(Cl)CCC1 (stereo not drawn) [Compound 8, 3-(4-{4-[1-(2-chloro-1-cyclopentenyl)ethoxycarbonylamino]-3-isoxazolyl}benzylsulfanyl)propionic acid] | 29 nM
C[C@@H](OC(=O)Nc1conc1-c1ccc(CSCCC(=O)O)cc1)C1=C(Cl)CCC1 [Compound 9, 3-(4-{4-[(1R)-1-(2-chloro-1-cyclopentenyl)ethoxycarbonyl-amino]-3-isoxazolyl}benzylsulfanyl)propionic acid] | 26 nM
CC(OC(=O)Nc1conc1-c1ccc(CSCCC(=O)O)cc1)C1=C(Cl)CCCC1 (stereo not drawn) [Compound 10, 3-(4-{4-[1-(2-chloro-1-cyclohexenyl)ethoxycarbonylamino]-3-isoxazolyl}benzylsulfanyl)propionic acid] | 56 nM
CC(OC(=O)Nc1conc1-c1ccc(CS(=O)(=O)CCC(=O)O)cc1)c1ccccc1Cl (stereo not drawn) [Compound 11, 3-(4-{4-[1-(2-chlorophenyl)ethoxycarbonylamino]-3-isoxazolyl}benzylsulfonyl)propionic acid] | 115 nM
C[C@@H](OC(=O)Nc1conc1-c1ccc(CS(=O)(=O)CCC(=O)O)cc1)c1ccccc1Br [Compound 12, 3-(4-{4-[(1R)-1-(2-bromophenyl)ethoxycarbonylamino]-3-isoxazolyl}benzylsulfonyl)propionic acid] | 68 nM
CC(OC(=O)Nc1conc1-c1ccc(CS(=O)(=O)CCC(=O)O)cc1)C1=C(Cl)CCCC1 (stereo not drawn) [Compound 13, 3-(4-{4-[1-(2-chloro-1-cyclohexenyl)ethoxycarbonylamino]-3-isoxazolyl}benzylsulfonyl)propionic acid] | 104 nM
CC(OC(=O)Nc1conc1-c1ccc(CCSCC(=O)O)cc1)c1ccccc1Cl (stereo not drawn) [Compound 14, {[2-(4-{4-[1-(2-chlorophenyl)ethoxycarbonylamino]-3-isoxazolyl}phenyl)ethyl]thio}acetic acid] | 146 nM
CC(OC(=O)Nc1conc1-c1ccc(CCSCCC(=O)O)cc1)c1ccccc1Cl (stereo not drawn) [Compound 15, {3-[2-(4-{4-[1-(2-chlorophenyl)ethoxycarbonylamino]-3-isoxazolyl}phenyl)ethyl]thio}propionic acid] | 44 nM
CC(OC(=O)Nc1conc1-c1ccc(CCSCC(=O)O)cc1)C1=C(Cl)CCC1 (stereo not drawn) [Compound 16, {[2-(4-{4-[1-(2-chlorocyclopentenyl)ethoxycarbonylamino]-3-isoxazolyl}phenyl)ethyl]thio}acetic acid] | 32 nM
CC(OC(=O)Nc1conc1-c1ccc(CCSCC(=O)O)cc1)C1=C(Cl)CCCC1 (stereo not drawn) [Compound 17, {[2-(4-{4-[1-(2-chlorocyclohexenyl)ethoxycarbonylamino]-3-isoxazolyl}phenyl)ethyl]thio}acetic acid] | 62 nM
CC(OC(=O)Nc1cnoc1-c1ccc(CSCCC(=O)O)cc1)c1ccccc1Cl (stereo not drawn) [Compound 18, 3-(4-{4-[1-(2-chlorophenyl)ethoxycarbonylamino]-5-isoxazolyl}benzylsulfanyl)propionic acid] | 81 nM

SMILES | IC50
CC(OC(=O)Nc1conc1-c1ccc(CCCCC(=O)O)cc1)c1ccccc1Cl (stereo not drawn) [Compound 19, 5-(4-{4-[1-(2-chlorophenyl)ethoxycarbonylamino]-3-isoxazolyl}phenyl)-4-pentanoic acid] | 47 nM
CC(OC(=O)Nc1conc1-c1ccc(COC(=O)NCCC(=O)O)cc1)c1ccccc1Cl (stereo not drawn) [Compound 20, 3-(4-{4-[1-(2-chlorophenyl)ethoxycarbonylamino]-3-isoxazolyl}benzyloxycarbonylamino)propionic acid] | 83 nM
CC(OC(=O)Nc1conc1-c1ccc(NC(=O)C[C@@H](O)C(=O)O)cc1)c1ccccc1Cl (stereo partly drawn) [Compound 21, 4-[(4-{4-[1-(2-chlorophenyl)ethoxycarbonylamino]-3-isoxazolyl}phenyl)amino]-(2R)-2-hydroxy-4-oxobutanoic acid] | 84 nM
CC(=O)Oc1ccc(-c2nocc2NC(=O)OC(C)c2ccccc2Cl)cc1 (stereo not drawn) [Compound 22, 4-[4-({[1-(2-chlorophenyl)ethoxy]carbonyl}amino)-3-isoxazolyl]phenyl acetate] | 140 nM
CC(OC(=O)Nc1conc1-c1ccc(O)cc1)c1ccccc1Cl (stereo not drawn) [Compound 23, 1-(2-chlorophenyl)ethyl 3-(4-hydroxyphenyl)-4-isoxazolylcarbamate] | 116 nM
CC(OC(=O)Nc1conc1-c1ccc(OCCCCC(=O)O)cc1)c1ccccc1Cl (stereo not drawn) [Compound 24, 5-(4-{4-[1-(2-chlorophenyl)ethoxycarbonylamino]-3-isoxazolyl}phenoxy)pentanoic acid] | 131 nM
CC(OC(=O)Nc1conc1-c1ccc(NC(=O)CCC(=O)O)cc1)c1ccccc1Cl (stereo not drawn) [Compound 25, 4-[(4-{4-[1-(2-chlorophenyl)ethoxycarbonylamino]-3-isoxazolyl}phenyl)amino]-4-oxobutanoic acid] | 73 nM
CC(=O)O[C@H](CC(=O)Nc1ccc(-c2nocc2NC(=O)OC(C)c2ccccc2Cl)cc1)C(=O)O (stereo partly drawn) [Compound 26, (2R)-2-acetoxy-4-[(4-{4-[1-(2-chlorophenyl)ethoxy-carbonylamino]-3-isoxazolyl}phenyl)amino]-4-oxobutanoic acid] | 141 nM
C[C@@H](OC(=O)Nc1conc1-c1ccc(CCSCC(=O)O)cc1)c1ccccc1Cl [Compound 27, {[2-(4-{4-[(1R)-1-(2-chlorophenyl)ethoxycarbonylamino]-3-isoxazolyl}phenyl)ethyl]thio}acetic acid] | 19 nM
C[C@@H](OC(=O)Nc1conc1-c1ccc(CS(=O)(=O)CCC(=O)O)cc1)c1ccccc1Cl [Compound 28, 3-(4-{4-[(1R)-1-(2-chlorophenyl)ethoxycarbonylamino]-3-isoxazolyl}benzylsulfonyl)propionic acid] | 36 nM
C[C@@H](OC(=O)Nc1conc1-c1ccc(CCSCCC(=O)O)cc1)c1ccccc1Cl [Compound 29, {3-[2-(4-{4-[(1R)-1-(2-chlorophenyl)ethoxycarbonylamino]-3-isoxazolyl}phenyl)ethyl]thio}propionic acid] | 29 nM
C[C@@H](OC(=O)Nc1conc1-c1ccc(/C=C/CCC(=O)O)cc1)c1ccccc1Cl [Compound 30, 5-(4-{4-[(1R)-1-(2-chlorophenyl)ethoxycarbonylamino]-3-isoxazolyl}phenyl)-4-pentenoic acid] | 107 nM
C[C@@H](OC(=O)Nc1conc1-c1ccc(CCCCC(=O)O)cc1)c1ccccc1Cl [Compound 31, 5-(4-{4-[(1R)-1-(2-chlorophenyl)ethoxycarbonylamino]-3-isoxazolyl}phenyl)-4-pentanoic acid] | 76 nM
C[C@@H](OC(=O)Nc1conc1-c1ccc(CCCCCC(=O)O)cc1)c1ccccc1Cl [Compound 32, 6-(4-{4-[(1R)-1-(2-chlorophenyl)ethoxycarbonylamino]-3-isoxazolyl}phenyl)hexanoic acid] | 114 nM
CC(OC(=O)Nc1conc1-c1ccc(CCC(C)(C)CC(=O)O)cc1)c1ccccc1Cl (stereo not drawn) [Compound 33, 5-(4-{4-[1-(2-chlorophenyl)ethoxycarbonylamino]-3-isoxazolyl}phenyl)-3,3-dimethylpentanoic acid] | 119 nM
CC(CCCc1ccc(-c2nocc2NC(=O)O[C@H](C)c2ccccc2Cl)cc1)C(=O)O (stereo partly drawn) [Compound 34, 5-(4-{4-[(1R)-1-(2-chlorophenyl)ethoxycarbonylamino]-3-isoxazolyl}phenyl)-2-methylpentanoic acid] | 102 nM
